Results on 37 compounds are retold here after US7960393B2, “Pyrimidine derivatives useful for the treatment of diseases mediated by CRTH2” (Actimis Pharmaceuticals, Inc., priority 2002, dated 2011).

Where only a bound is given, the exact number is not on record here.

One data set concerns the target T1, human CRTH2 (Homo sapiens, UniProt Q9Y5Y4).
T1 construct: expressed in transfected cells; host or cells: L1.2 cells, pEAK expression vector, puromycin-selected
T1 sequence (Q9Y5Y4 1-395): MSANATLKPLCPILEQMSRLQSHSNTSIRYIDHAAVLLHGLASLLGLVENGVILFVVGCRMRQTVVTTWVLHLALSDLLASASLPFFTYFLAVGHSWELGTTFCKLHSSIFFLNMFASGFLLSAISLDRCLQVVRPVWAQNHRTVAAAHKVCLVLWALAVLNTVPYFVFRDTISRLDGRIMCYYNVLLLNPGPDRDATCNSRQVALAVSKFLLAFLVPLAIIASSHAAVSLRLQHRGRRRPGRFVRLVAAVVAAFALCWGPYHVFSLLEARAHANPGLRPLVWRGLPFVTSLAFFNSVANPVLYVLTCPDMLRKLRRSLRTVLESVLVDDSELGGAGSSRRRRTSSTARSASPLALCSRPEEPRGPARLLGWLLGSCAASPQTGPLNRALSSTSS
The data set is described as follows: Measurement of Ca2+ mobilization in the human CRTH2-transfected L1.2 cell line (Assay 1). The following applies: PGD2-induced Ca2+ mobilization in CRTH2-transfected L1.2 cells; compounds as yielded by solid phase synthesis, purity about 40 to 90%; read-out: Activity class. Type of data set: cell-based. The procedure:
Human CRTH2 cDNA was amplified from human eosinophil cDNA with gene specific primers containing restriction sites for cloning into pEAK vector (Edge Bio Systems). The human CRTH2 cDNA was cloned into the mammalian expression vector pEAK. This expression plasmid (40 μg) was transfected into L1.2 cells, at a cell density of 1×10^7 cells/500 μl, by using electroporation apparatus (Gene Pulser II, BioRad) at 250V/1,000 μF. One day after the transfection, puromycin (1 μg/ml, Sigma) was added into the cell culture plates. Two weeks after the transfection, grown cells were picked up for further growth.
[Measurement of Ca^2+ Mobilization in the Human CRTH2-Transfected L1.2 Cell Line] (Assay 1)
Ca^2+ loading buffer was prepared by mixing 5 μl of Fluo-3AM (2 mM in DMSO, final 1 μM, Molecular Probes) and 10 μl of pluronic F-127 (Molecular Probes) and diluting the resulting mixture in 10 ml of Ca^2+ assay buffer (20 mM HEPES pH 7.6, 0.1% BSA, 1 mM probenecid, Hanks' solution). The CRTH2 transfected cells which were prepared in Example 1 were washed with PBS, resuspended in Ca^2+ loading buffer at 1×10^7 cells/ml, and incubated for 60 min at room temperature. After incubation, cells were washed and resuspended in Ca^2+ assay buffer, then dispensed into transparent-bottom 96-well plates (#3631, Costar) at 2×10^5 cells/well. Cells were incubated with various concentrations of test compound for 5 minutes at room temperature. The emitted 480 nm fluorescence was measured on FDSS6000, a Ca^2+-measurement apparatus (Hamamatsu Photonics, Hamamatsu, Japan).
Assay results in Assay 1 are shown in Examples and tables of the Examples below. The data corresponds to the compounds as yielded by solid phase synthesis and thus to levels of purity of about 40 to 90%. For practical reasons, the compounds are grouped in four classes of activity as follows: IC50=A(< or =)10 nM<B(< or =)100 nM<C(< or =)500 nM<D
(In general: Calcium flux is commonly read through the fluorescence of an indicator in the cells.)

`CN(C)c1nc(Cc2ccc(NC(=O)c3ccc(Cl)c(Cl)c3)cc2)nc(Cl)c1CC(=O)O` [Example 1-34] came in with a melting point greater than 168 °C. For the same compound, the IC50 at human CRTH2 is less than 0.01 µM.
Taken in the same sequence, the figures for `CN(C)c1nc(Cc2ccc(NC(=O)c3ccc(Cl)cc3)cc2)nc(Cl)c1CC(=O)O` [Example 1-35] were greater than 166 °C and less than 0.01 µM.
Taken in the same sequence, the figures for `COc1ccc(C(=O)Nc2ccc(Cc3nc(Cl)c(CC(=O)O)c(N(C)C)n3)cc2)cc1` [Example 1-36] were greater than 130 °C and less than 0.01 µM.
The like results for `CN(C)c1ccc(C(=O)Nc2ccc(Cc3nc(Cl)c(CC(=O)O)c(N(C)C)n3)cc2)cc1` [Example 1-37] were, in that order, greater than 111 °C and less than 0.01 µM.
The compound `COc1ccc(C(=O)Nc2ccc(Cc3nc(Cl)c(CC(=O)O)c(N(C)C)n3)cc2)cc1OC` [Example 1-38] showed a melting point greater than 95 °C. Also, the IC50 on human CRTH2 was 0.01 to 0.1 µM.
Taken in the same sequence, the figures for `CN(C)c1nc(Cc2ccc(NC(=O)c3ccc(C(F)(F)F)cc3)cc2)nc(Cl)c1CC(=O)O` [Example 1-39] were greater than 150 °C and less than 0.01 µM.
As to `CN(C)c1nc(Cc2ccc(NC(=O)/C=C/c3ccc(Cl)cc3)cc2)nc(Cl)c1CC(=O)O` [Example 1-41], the melting point is 117 °C. In addition, the IC50 on human CRTH2 was less than 0.01 µM.
The like results for `CN(C)c1nc(Cc2ccc(NC(=O)c3ccc(Br)cc3)cc2)nc(Cl)c1CC(=O)O` [Example 1-42] were, in that order, 100 °C and less than 0.01 µM.
The like results for `CN(C)c1nc(Cc2ccc(NC(=O)c3cccc(Cl)c3Cl)cc2)nc(Cl)c1CC(=O)O` [Example 1-43] were, in that order, 101 °C and 0.1 to 0.5 µM.
Compound `CN(C)c1nc(Cc2ccc(NC(=O)c3cc(Cl)ccc3Cl)cc2)nc(Cl)c1CC(=O)O` [Example 1-44] registered a melting point of 96 °C. At human CRTH2, the IC50 was less than 0.01 µM.
Turning to `CN(C)c1nc(Cc2ccc(NC(=O)c3ccc(F)c(F)c3)cc2)nc(Cl)c1CC(=O)O` [Example 1-45], the melting point is greater than 94 °C. For the same compound, the IC50 at human CRTH2 is less than 0.01 µM.
Taken in the same sequence, the figures for `CN(C)c1nc(Cc2ccc(NC(=O)c3cc(Cl)cc(Cl)c3)cc2)nc(Cl)c1CC(=O)O` [Example 1-46] were greater than 99 °C and less than 0.01 µM.
`CN(C)c1nc(Cc2ccc(NC(=O)c3cccc(Cl)c3)cc2)nc(Cl)c1CC(=O)O` [Example 1-47] had a melting point greater than 108 °C. The IC50 at human CRTH2 is less than 0.01 µM.
Taken in the same sequence, the figures for `COc1cccc(C(=O)Nc2ccc(Cc3nc(Cl)c(CC(=O)O)c(N(C)C)n3)cc2)c1` [Example 1-48] were greater than 75 °C and less than 0.01 µM.
Take `CN(C)c1nc(Cc2cccc(NC(=O)c3ccc4ccccc4c3)c2)nc(Cl)c1CC(=O)O` [Example 1-49]: the melting point was found to be 186 °C. For the same compound, the IC50 on human CRTH2 is 0.01 to 0.1 µM.
Taken in the same sequence, the figures for `CN(C)c1nc(Cc2ccccc2NC(=O)c2ccc3ccccc3c2)nc(Cl)c1CC(=O)O` [Example 1-50] were 295 °C and greater than 0.5 µM.
Taken in the same sequence, the figures for `CN(C)c1nc(Cc2ccc(NC(=O)C3CCC(C(C)(C)C)CC3)cc2)nc(Cl)c1CC(=O)O` (centres unmarked) [Example 1-51] were 104 °C and less than 0.01 µM.
Taken in the same sequence, the figures for `N=C(N)Nc1ccc(C(=O)Nc2ccc(Cc3nc(Cl)c(CC(=O)O)c(N4CCCC4)n3)cc2)cc1` [Example 1-52] were 176 °C and greater than 0.5 µM.
Consider `O=C(O)Cc1c(Cl)nc(Cc2ccc(NC(=O)c3ccc([N+](=O)[O-])cc3)cc2)nc1N1CCCC1` [Example 1-53], for which the melting point worked out at 134 °C. The IC50 on human CRTH2 was in the range of 0.01 to 0.1 µM.
The like results for `CC(=O)Nc1ccc(C(=O)Nc2ccc(Cc3nc(Cl)c(CC(=O)O)c(N4CCCC4)n3)cc2)cc1` [Example 1-54] were, in that order, 189 °C and 0.01 to 0.1 µM.
In the case of `O=C(O)Cc1c(Cl)nc(Cc2ccc(NC(=O)c3ccc(Oc4ccccc4)cc3)cc2)nc1N1CCCC1` [Example 1-55], the melting point turned out to be 160 °C. Also, the IC50 at human CRTH2 was less than 0.01 µM.
Compound `CC(C)Oc1ccc(C(=O)Nc2ccc(Cc3nc(Cl)c(CC(=O)O)c(N4CCCC4)n3)cc2)cc1` [Example 1-56] had a melting point of 156 °C. For the same compound, the IC50 at human CRTH2 was less than 0.01 µM.
The like results for `O=C(O)Cc1c(Cl)nc(Cc2ccc(NC(=O)c3ccc(-n4cccc4)cc3)cc2)nc1N1CCCC1` [Example 1-57] were, in that order, 217 °C and less than 0.01 µM.
Compound `COc1ccc(C(=O)Nc2ccc(Cc3nc(Cl)c(CC(=O)O)c(N4CCCC4)n3)cc2)cc1[N+](=O)[O-]` [Example 1-58] gave a melting point of 118 °C. On human CRTH2, the IC50 was less than 0.01 µM.
Taken in the same sequence, the figures for `COc1c(C)cc(C(=O)Nc2ccc(Cc3nc(Cl)c(CC(=O)O)c(N4CCCC4)n3)cc2)cc1C` [Example 1-59] were 115 °C and less than 0.01 µM.
Taken in the same sequence, the figures for `O=C(O)Cc1c(Cl)nc(Cc2ccc(NC(=O)/C=C/c3ccccc3)cc2)nc1N1CCCC1` [Example 1-60] were 120 °C and less than 0.01 µM.
In turn, `O=C(O)Cc1c(Cl)nc(Cc2ccc(NC(=O)c3ccc(Cl)c(Cl)c3)cc2)nc1N1CCCC1` [Example 1-61] gave a melting point of 129 °C. For the same compound, at human CRTH2, the IC50 was less than 0.01 µM.
The like results for `CN(CC(=O)NC1CCCC1)c1nc(Cc2ccc(NC(=O)c3ccc4ccccc4c3)cc2)nc(Cl)c1CC(=O)O` [Example 1-62] were, in that order, greater than 176 °C and less than 0.01 µM.
The like results for `O=C(O)Cc1c(Cl)nc(Cc2ccc(NC(=O)c3ccc(Cl)cc3)cc2)nc1N1CCCC1` [Example 1-63] were, in that order, 173 °C and less than 0.01 µM.
The like results for `O=C(O)Cc1c(Cl)nc(Cc2ccc(NC(=O)c3ccc(C(F)(F)F)cc3)cc2)nc1N1CCCC1` [Example 1-64] were, in that order, 162 °C and less than 0.01 µM.
For the compound `O=C(O)Cc1c(Cl)nc(Cc2ccc(NC(=O)/C=C/c3ccc(Cl)cc3)cc2)nc1N1CCCC1` [Example 1-65], the melting point was in the range of 188 to 190 °C. The IC50 on human CRTH2 was less than 0.01 µM.
The like results for `CN(CCO)c1nc(Cc2ccc(NC(=O)c3ccc4ccccc4c3)cc2)nc(Cl)c1CC(=O)O` [Example 1-66] were, in that order, 140 °C and less than 0.01 µM.
Taken in the same sequence, the figures for `CN(C)c1nc(Cc2ccc(NC(=O)[C@@H]3CCc4ccccc4O3)cc2)nc(Cl)c1CC(=O)O` [Example 1-67] were greater than 120 °C and less than 0.01 µM.
Taken in the same sequence, the figures for `CN(C)c1nc(Cc2ccc(NC(=O)/C=C/c3ccc(C(F)(F)F)cc3)cc2)nc(Cl)c1CC(=O)O` [Example 1-68] were greater than 199 °C and less than 0.01 µM.
With `COc1ccc(C(=O)Nc2ccc(Cc3ncc(CC(=O)O)c(N(C)C)n3)cc2)cc1` [Example 2-7], the melting point is 111 °C. Further, the IC50 on human CRTH2 was less than 0.01 µM.
The like results for `CN(C)c1nc(Cc2ccc(NC(=O)c3ccc(Cl)c(Cl)c3)cc2)ncc1CC(=O)O` [Example 2-8] were, in that order, 140 °C and less than 0.01 µM.
Taken in the same sequence, the figures for `CN(C)c1nc(Cc2ccc(NC(=O)c3ccc4ccccc4n3)cc2)ncc1CC(=O)O` [Example 2-9] were 136 to 144 °C and 0.01 to 0.1 µM.

As a reminder, the melting point is the temperature, or range, at which the solid turns liquid.
